Values joined by “and” are separate entries in the source; they are usually repeats but may differ in a detail not shown here. Identical values can stand only once. Like-named read-outs stand apart in the source and are kept apart here.

Usually IC50 stands for the concentration that inhibits the measured activity by half.

For one assay, the target named is T1, COX-2 (Mus musculus, UniProt Q05769).
T1 construct: LPS, which was used to induce the expression of COX-2 in the RAW 264.7 cells; host or cells: RAW 264.7 (murine), LPS-stimulated
T1 sequence (Q05769 18-604): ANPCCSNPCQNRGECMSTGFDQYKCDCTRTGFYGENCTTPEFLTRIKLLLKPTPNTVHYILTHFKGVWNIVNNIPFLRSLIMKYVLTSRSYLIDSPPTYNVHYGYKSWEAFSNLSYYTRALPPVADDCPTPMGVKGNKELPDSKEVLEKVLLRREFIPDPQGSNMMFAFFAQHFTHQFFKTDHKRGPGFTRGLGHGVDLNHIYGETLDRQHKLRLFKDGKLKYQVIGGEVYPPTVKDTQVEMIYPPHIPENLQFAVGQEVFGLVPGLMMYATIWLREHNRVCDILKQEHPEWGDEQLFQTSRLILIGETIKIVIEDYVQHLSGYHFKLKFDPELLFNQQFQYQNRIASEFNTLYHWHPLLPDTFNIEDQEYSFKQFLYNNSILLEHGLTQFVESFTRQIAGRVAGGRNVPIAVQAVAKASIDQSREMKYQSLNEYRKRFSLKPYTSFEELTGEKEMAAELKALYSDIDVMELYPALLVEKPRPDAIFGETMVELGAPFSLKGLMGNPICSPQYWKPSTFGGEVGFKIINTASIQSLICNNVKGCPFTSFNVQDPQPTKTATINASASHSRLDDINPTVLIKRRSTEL
The experiment in a line: cell-based.

In another assay the target is T2, COX-1 enzyme (ovine) (Ovis aries, UniProt P05979).
T2 construct: purchased Cayman Chemical $60100
T2 sequence (P05979 25-600): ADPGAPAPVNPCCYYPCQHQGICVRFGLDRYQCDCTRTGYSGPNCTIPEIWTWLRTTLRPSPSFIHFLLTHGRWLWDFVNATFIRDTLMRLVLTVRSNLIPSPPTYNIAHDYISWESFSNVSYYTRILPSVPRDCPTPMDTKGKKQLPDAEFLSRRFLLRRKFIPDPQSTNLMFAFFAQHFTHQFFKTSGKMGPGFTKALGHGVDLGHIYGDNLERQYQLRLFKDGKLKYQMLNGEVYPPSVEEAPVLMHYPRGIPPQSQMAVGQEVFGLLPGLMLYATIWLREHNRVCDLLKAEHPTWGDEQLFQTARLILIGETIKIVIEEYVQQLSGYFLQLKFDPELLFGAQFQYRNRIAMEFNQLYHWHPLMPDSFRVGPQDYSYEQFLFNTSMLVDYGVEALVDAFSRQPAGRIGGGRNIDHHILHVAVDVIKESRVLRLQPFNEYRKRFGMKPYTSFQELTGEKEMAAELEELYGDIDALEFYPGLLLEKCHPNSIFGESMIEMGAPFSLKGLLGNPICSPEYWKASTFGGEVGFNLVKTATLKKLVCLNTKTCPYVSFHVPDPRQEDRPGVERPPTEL
The assay can be described thus: COX-1 enzyme inhibition (COX-1 synthesis of PGE2). The format is biochemical.

A further assay relates to COX-2 over COX-1. The conditions noted are these: reported, background; cited from earlier work.
The mark [1] stands for this setting: RAW 264.7 cell model, read-out: COX-2 IC50 (converted).
[2] abbreviates: second component alone, PGE2 production by COX-2, RAW 264.7 cells, 24 h LPS, read-out: Second Component IC50 (converted).

Experimental for COX-1 enzyme (ovine): General Prodecure—Oxygen-free 1.0M Tris-HCl buffer (pH 8.0) was prepared as follows: In a 1000 mL beaker, 12.11 g Trizma HCl was dissolved into 900 mL ultra-pure water. The beaker was placed on a stir plate with a stir bar. NaOH was added until the pH reached 8.0. The volume was adjusted to a final volume of 100 mL and stored in a 1000 mL storage bottle.
The Tris-HCl buffer was placed into a vacuum chamber with the top loosened and the air pump was turned on until the buffer stopped bubbling. The vacuum chamber was then turned off and the storage bottle was tightly covered. This steps was repeated each time when oxygen-free Tris-HCl buffer was used.
One mL cofactor solution was prepared by adding 1.3 mg (−) epinephrine, 0.3 mg reduced glutathione and 1.3 mg hematin to 1 mL oxygen free Tris-HCl buffer. The solutions of the test material were prepared as needed, i.e., 10 mg of aspirin was weighed and dissolved into 1 mL DMOS. Enzymes, i.e., prostaglandin E2 or prostaglandin F2alpha, were dissolved in oxygen free Tris-HCl buffer as follows, i.e., on ice, 6.5 μL of enzyme at 40,000 units/mL was taken and added to 643.5 μL of oxygen free Tris-HCl buffer. This enzyme solution is enough for 60 reactions. The COX-1 enzyme solution was prepared as follows: In a 15 mL centrifuge tube, 10 μL centrifuge tube, 10 μL COX-1 enzyme at 40,000 units/mL was added to oxygen free Tris-HCl with 50 μL of the cofactor solution per reaction. The mixture was incubated on ice for five minutes (i.e., for 60 reactions add 65 μL enzyme in oxygen free Tris-HCl buffer with 3.25 mL cofactor solution.
Sixty microliters of the enzyme solution were combined with 20 mL of the test solution in each well of a 96 well plate. […] The plates were preincubated on ice for 10 minutes. Twenty μL arachidonic acid (30 μM) was added and incubated for 15 minutes at 37° C.
The reaction was terminated by adding 10 μL 2 M HCl. The final solution was used as the supernatant for the PGE2 assay.
General Procedure—EIA Buffer was prepared by diluting the contents of the EIA Buffer Concentrate (vial #4) with 90 ml of Ultra-pure water. […]

For the molecule `C[C@H]1[C@H](C)CC[C@]2(C(=O)O)CC[C@]3(C)C(=CC[C@@H]4[C@@]5(C)CC[C@H](O)C(C)(C)[C@@H]5CC[C@]43C)[C@H]12` [Ursolic Acid, Ursolic acid], the IC50 was 130 µM at COX-2 (setting [1]) and 171 µM on COX-2 (setting [2]).

At COX-1 enzyme (ovine) (COX-1 IC50, ovine COX-1 enzyme), `COc1cc(/C=C/C(=O)CC(=O)/C=C/c2ccc(O)c(OC)c2)ccc1O` [Curcumin] showed an IC50 of 34.2 µM.

Regarding `C=C1CC[C@@H]2[C@](C)(CO)[C@H](O)CC[C@@]2(C)[C@@H]1C/C=C1/C(=O)OC[C@H]1O` [Andrographolide], the IC50 on COX-2 (setting [1]) was 819 µM; at COX-2 (setting [2]) it was 591 µM; on COX-1 enzyme (ovine) (ovine COX-1 enzyme, read-out: COX-1 IC50 (converted)) it was ~4280 µM and 4280 µM. The “SPECIFICITY COX-1/COX-2” value at COX-2 (ratio COX-1 IC50 / COX-2 IC50) came to 5.2.

As to `CC(=O)Oc1ccccc1C(=O)O` [aspirin], the COX-2 specificity in the assay with COX-2 over COX-1 is recorded as 0.6.

These data come from patent US20040247700A1 (priority 2001, published 2004).
